Data taken from patent publication US5817840A, “Water soluble taxol derivatives” (The Scripps Research Institute, priority 1997, dated 1998).
pIC50: −log10 of the molar value. “Also recorded” adds a separate entry of the source.

Columns and labels:
MCF-7 (breast carcinoma) [1] = assay: Cytotoxicity (sulphorhodamine B), cancer cell line, Table 1B; type: cell-based; conditions: Homo sapiens, MCF7, 72 h
NHDF (normal human skin) = assay: Cytotoxicity (sulphorhodamine B), normal cell line, Table 1B; type: cell-based; conditions: 72 h
[2] = system: OVCAR-3 (ovarian carcinoma); assay: Cytotoxicity (sulphorhodamine B), cancer cell line, Table 1B; type: cell-based; conditions: Homo sapiens, OVCAR-3, 72 h
[3] = system: BALB/c 3T3 (normal mouse embryo); assay: Cytotoxicity (sulphorhodamine B), normal cell line, Table 1B; type: cell-based; conditions: BALB/c3T3, 72 h
[4] = system: RPMI-7666 (normal human PBLs); assay: as above; type: cell-based; conditions: 72 h
[5] = system: BT-549 (breast carcinoma); assay: Cytotoxicity (sulphorhodamine B), cancer cell line, Table 1B; type: cell-based; conditions: Homo sapiens, BT-549, 72 h
[6] = system: broad spectrum of cell lines; assay: Cytotoxicity against a broad spectrum of cell lines (overall); conditions: Table 1B
Protocol: The protaxols synthesized in this study were tested against a broad spectrum of cell lines ranging from the multiple-drug resistant ovarian (OVCAR-3) to lung (H-322) and leukemia (MOLT-4) cells in order to assess cytotoxicity, cell-type selectivity, and duration of action.
The cytotoxicities were determined using the sulphorhodamine B assay method (Skehan, P. et al. J. Nat. Canc. Inst. 82, 1107 (1990)).

[7] = system: UCLA-P-3 (lung carcinoma); assay: Cytotoxicity (sulphorhodamine B), cancer cell line, Table 1B; type: cell-based; conditions: Homo sapiens, UCLA P-3, 72 h
[8] = system: 786-0 (renal cell carcinoma); assay: as above; type: cell-based; conditions: Homo sapiens, 786-0, 72 h
SIHA (cervix carcinoma) = assay: as above; type: cell-based; conditions: Homo sapiens, SiHa, 72 h
[9] = system: CHO (Chinese hamster ovary); assay: Cytotoxicity (sulphorhodamine B), normal cell line, Table 1B; type: cell-based; conditions: Cricetulus griseus, 72 h
[10] = system: CHO (normal human mammary); assay: as above; type: cell-based; conditions: Homo sapiens, 72 h
[11] = system: MOLT-4 (T-cell leukaemia); assay: Cytotoxicity (sulphorhodamine B), cancer cell line, Table 1B; type: cell-based; conditions: Homo sapiens, MOLT-4, 72 h
[12] = cited from earlier work
physchem = assay: physchem
Protocol: The solubilities of the synthesized protaxols in D2 O were determined by 1H NMR spectroscopy.
The resulting mixture was centrifuged for 20 minutes and the supernatant saturated solution was analysed by ^1 H NMR spectroscopy using a Bruker AMX-400 instrument and methanol or pyridine as internal standard. The concentration of the compound was determined by comparing several signals with the CH3 signal of methanol or the NCH signal of pyridine.

[13] = system: HL-60 (promyel carcinoma); assay: Cytotoxicity (sulphorhodamine B), cancer cell line, Table 1B; type: cell-based; conditions: Homo sapiens, HL-60, 72 h
H322 (lung carcinoma) [14] = assay: as above; type: cell-based; conditions: NCI-H322, 72 h
tubulin / microtubules = assay: Tubulin polymerization-depolymerization (CaCl2-induced depolymerization of microtubules); type: biochemical; conditions: 10^-6 M; 1.0 mg/mL tubulin; CaCl2 0.25 mM after 16 minutes; 37° C.; initial, no prior release
Protocol: Tubulin polymerization to microtubules is promoted by GTP, whereas CaCl2 causes depolymerization of microtubules back to tubulin (FIG. 3A). […] The designed protaxol 5 was tested for its ability to stabilize microtubules formed from tubulin via the action of GTP. […] These findings are in agreement with the previously reported loss of activity resulting from blocking the C-2' hydroxyl group.
Tubulin polynerization-depolymerization experiments with taxol and designed protaxol 5 are illustrated in FIG. 3. CaCl2 -promoted depolymerization of microtubules was suppressed by taxol and protaxol 5 (after taxol release).
These measurements may be conducted at 37° C. following a recently developed procedure described by R. Merlock and W. Wrasidlo (Analytical Biochemistry, 1993). In each case 1.0 mM GTP may be employed to promote initial polymerization of tubulin.
D: Tubulin (1.0 mg/mL) with protaxol 5 (10^-6 M) after release of taxol (as determined by HPLC, essentially quantitative conversion).

L1210 (mouse leukaemia) = assay: Cytotoxicity (sulphorhodamine B), cancer cell line, Table 1B; type: cell-based; conditions: L1210, 72 h
[15] = system: OVCAR-3 (human ovarian carcinoma); assay: Cytotoxicity, Example 8; type: cell-based; conditions: OVCAR-3, 72 h
Protocol: (§1) Tumor or normal cells were cultured in 96-well plates with the test compound in 200 μl of RPMI supplemented with 10% fetal bovine serum (Hyclone, Salt Lake City, Utah) at 37° C. in a humidified atmosphere containing 5% CO2 in air for 72 hours. Sulforhodamine B dissolved in 1% acetic acid was added, and the plates were incubated for 30 minutes at ambient temperature, washed with 1% acetic acid, and blotted. To the air-dried plates were added 100 μl of […] unbuffered TRIS base (pH 10.5) with shaking. The optical densities of the plates were measured with a microplate reader (Molecular Devices Thermomax) at 540 nm. The concentration of compound required to reduce the absorbance to 50% of control samples was recorded as IC50.
(§2) NHDF: Normal human dermal fibroblast (available from Clouelics Corp., San Diego, Calif.); HLF-1: Normal human diploid lung; W1-38; Normal human diploid lung; CHO; Chinese hamster ovary; SK-MEL-28: Melanoma; CAPAN-1: Pancreatic carcinoma; H322: lung carcinoma; MCF-7; Breast carcinoma; BT-549; Human breast ductal carcinoma; OVCAR-3: Human ovarian carcinoma; HT-29: Human adenocarcinoma, colon; SIHA: Human squamous carcinoma crvx; 786-0: Human perirenal cell adenocarci; PC-3: Human prostate adenocarcinoma; HL-60: Human promyelomic leukemia; MOLT-4: Human T-cell leukemia. All cell lines except NHDF are available from the American Tissue Culture Collection, Rockville, Md.

MCF-7 (breast carcinoma) [16] = assay: Cytotoxicity, Example 8; type: cell-based; conditions: Homo sapiens, MCF7, 72 h
Protocol: as §1, §2

[17] = system: HT-29 (human adenocarcinoma, colon); assay: Cytotoxicity, Example 8; type: cell-based; conditions: HT-29, 72 h
Protocol: as §1, §2

H322 (lung carcinoma) [18] = assay: Cytotoxicity, Example 8; type: cell-based; conditions: NCI-H322, 72 h
Protocol: as §1, §2

[19] = system: HLF-1 (normal human diploid lung); assay: Cytotoxicity, Example 8; type: cell-based; conditions: HLF1, 72 h
Protocol: as §1, §2

[20] = system: 786-0 (human perirenal cell adenocarci); assay: Cytotoxicity, Example 8; type: cell-based; conditions: 786-0, 72 h
Protocol: as §1, §2

[21] = system: CAPAN-1 (pancreatic carcinoma); assay: Cytotoxicity, Example 8; type: cell-based; conditions: Homo sapiens, CAPAN-1, 72 h
Protocol: as §1, §2

[22] = system: W1-38 (normal human diploid lung); assay: Cytotoxicity, Example 8; type: cell-based; conditions: W138, 72 h
Protocol: as §1, §2

[23] = system: NHDF (normal human dermal fibroblast); assay: Cytotoxicity, Example 8; type: cell-based; conditions: 72 h
Protocol: as §1, §2

SK-MEL-28 (melanoma) = assay: Cytotoxicity, Example 8; type: cell-based; conditions: Homo sapiens, SK-MEL-28, 72 h
Protocol: as §1, §2

[24] = system: BT-549 (human breast ductal carcinoma); assay: Cytotoxicity, Example 8; type: cell-based; conditions: BT-549, 72 h
Protocol: as §1, §2

[25] = system: S1HA (human squamous carcinoma crvx); assay: Cytotoxicity, Example 8; type: cell-based; conditions: 72 h
Protocol: as §1, §2

[26] = system: CHO (Chinese hamster ovary); assay: Cytotoxicity, Example 8; type: cell-based; conditions: Cricetulus griseus, 72 h
Protocol: as §1, §2

[27] = system: PC-3 (human prostate adenocarcinoma); assay: Cytotoxicity, Example 8; type: cell-based; conditions: 72 h
Protocol: as §1, §2

HT-29 (colon carcinoma) = assay: Cytotoxicity (sulphorhodamine B), cancer cell line, Table 1B; type: cell-based; conditions: Homo sapiens, HT-29, 72 h
[28] = system: PC-3 (prostate carcinoma); assay: as above; type: cell-based; conditions: Homo sapiens, 72 h
SK (melanoma) = assay: as above; type: cell-based; conditions: 72 h
Capan-1 (pancreatic) = assay: as above; type: cell-based; conditions: Homo sapiens, CAPAN-1, 72 h

CC(=O)O[C@H]1C(=O)[C@@]2(C)[C@H]([C@H](OC(=O)c3ccccc3)[C@]3(O)C[C@H](OC(=O)[C@H](O)[C@@H](NC(=O)c4ccccc4)c4ccccc4)C(C)=C1C3(C)C)[C@]1(OC(C)=O)CO[C@@H]1C[C@@H]2O [Taxol]
pIC50 (MCF-7 (breast carcinoma) [1]): > 5.00 | pIC50 (NHDF (normal human skin)): 6.00 | pIC50 [2]: > 9.00 | pIC50 [3]: 6.00 | pIC50 [4]: 4.00 | pIC50 [5]: 9.00 | selectivity against cancer cells versus normal cells [6]: rather impressive selectivity | pIC50 [7]: > 9.00 | pIC50 [8]: 7.00 | pIC50 (SIHA (cervix carcinoma)): 5.00 | pIC50 [9]: 4.00 | pIC50 [10]: 4.00 | pIC50 [11]: > 9.00 | water solubility of taxol [12]: only slightly soluble in water; also recorded: essentially insoluble in water | Water solubility (physchem): < 100 µg/mL | pIC50 [13]: > 9.00 | pIC50 (H322 (lung carcinoma) [14]): 9.00 | prevention of CaCl2-induced depolymerization of microtubules (tubulin / microtubules): stabilizes microtubules against CaCl2-induced depolymerization; also recorded: suppressed; also recorded: did not cause depolymerization | pIC50 (L1210 (mouse leukaemia)): 6.00 | pIC50 [15]: 7.01 | pIC50 (MCF-7 (breast carcinoma) [16]): 4.19 | pIC50 [17]: 7.01 | pIC50 (H322 (lung carcinoma) [18]): 3.91 | pIC50 [19]: 4.20 | pIC50 [20]: 6.74 | pIC50 [21]: 7.01 | pIC50 [22]: 4.22 | pIC50 [23]: 3.68 | pIC50 (SK-MEL-28 (melanoma)): 4.00 | pIC50 [24]: 4.35 | pIC50 [25]: 2.95 | pIC50 [26]: 4.27 | pIC50 [27]: 4.16 | pIC50 (HT-29 (colon carcinoma)): > 9.00 | pIC50 [28]: 6.00 | pIC50 (SK (melanoma)): 5.00 | pIC50 (Capan-1 (pancreatic)): > 9.00
